Patent US4689345A, “Oxygenated alkyl substituted bicyclo alkanes” (CBD Corporation, priority 1986, dated 1987)
Where “and” joins values, the source holds several entries; their conditions need not be identical. Equal values may be shown once. Entries after “also recorded” stand apart in the source; their conditions may differ. Read-outs that look alike come from different tables or passages of the source.

Tests used:
progesterone receptor [1] = target: T1, progesterone receptor (Homo sapiens, UniProt P06401); assay: Progesterone receptor inhibition in skin/tissue fibroblast lines; format: cell-based; settings: DHT:compound 1:1,000
T1 construct: Skin fibroblast tissue lines from surgical explants were obtained; endogenous in cells; host or cells: skin fibroblast lines from surgical explants (keloid, scalp, forearm)
T1 sequence (P06401 1-933): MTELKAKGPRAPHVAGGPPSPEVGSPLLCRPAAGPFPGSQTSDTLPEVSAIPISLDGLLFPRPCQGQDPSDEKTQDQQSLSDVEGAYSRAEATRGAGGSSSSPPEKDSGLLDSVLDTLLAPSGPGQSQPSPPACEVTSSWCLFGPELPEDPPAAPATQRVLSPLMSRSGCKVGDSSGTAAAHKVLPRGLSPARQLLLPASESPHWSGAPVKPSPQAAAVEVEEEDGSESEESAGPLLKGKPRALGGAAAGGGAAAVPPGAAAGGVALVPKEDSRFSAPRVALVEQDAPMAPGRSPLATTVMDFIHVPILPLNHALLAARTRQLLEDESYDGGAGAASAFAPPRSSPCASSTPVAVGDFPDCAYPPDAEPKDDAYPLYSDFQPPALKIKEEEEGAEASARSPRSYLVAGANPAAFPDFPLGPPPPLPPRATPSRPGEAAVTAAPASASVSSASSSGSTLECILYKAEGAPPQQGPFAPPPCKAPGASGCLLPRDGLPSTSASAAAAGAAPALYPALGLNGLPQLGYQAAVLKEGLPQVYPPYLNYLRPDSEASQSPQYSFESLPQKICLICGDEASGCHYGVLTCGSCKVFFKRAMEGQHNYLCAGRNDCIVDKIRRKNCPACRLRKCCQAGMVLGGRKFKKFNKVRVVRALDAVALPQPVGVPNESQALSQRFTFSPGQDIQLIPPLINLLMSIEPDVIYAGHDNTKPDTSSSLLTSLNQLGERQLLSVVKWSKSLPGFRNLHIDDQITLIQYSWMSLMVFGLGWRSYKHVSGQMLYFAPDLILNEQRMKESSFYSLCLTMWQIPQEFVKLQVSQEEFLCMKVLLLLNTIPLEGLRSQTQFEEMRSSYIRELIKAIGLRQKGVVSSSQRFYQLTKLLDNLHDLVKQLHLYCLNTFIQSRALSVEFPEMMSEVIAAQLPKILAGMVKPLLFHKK
Experimental: (§1) Explants of both normal and keloid skin and tissue fibroblast lines were established.
(§2) Hormonal receptor analyses on these tissues were performed by the method of Griffith et al., Journal of Clinical Investigation, Vol. 57, page 1340 (1978).

[2] = target: T2, androgen receptor sites (keloid cytosol) (Homo sapiens, UniProt P10275); assay: Keloid cytosol steroid binding assay, androgen (DHT)
T2 construct: Surgical excision of keloids was performed from clinic and private patient populations; from tissue; host or cells: cytosol of surgically excised keloids
T2 sequence (P10275 1-920): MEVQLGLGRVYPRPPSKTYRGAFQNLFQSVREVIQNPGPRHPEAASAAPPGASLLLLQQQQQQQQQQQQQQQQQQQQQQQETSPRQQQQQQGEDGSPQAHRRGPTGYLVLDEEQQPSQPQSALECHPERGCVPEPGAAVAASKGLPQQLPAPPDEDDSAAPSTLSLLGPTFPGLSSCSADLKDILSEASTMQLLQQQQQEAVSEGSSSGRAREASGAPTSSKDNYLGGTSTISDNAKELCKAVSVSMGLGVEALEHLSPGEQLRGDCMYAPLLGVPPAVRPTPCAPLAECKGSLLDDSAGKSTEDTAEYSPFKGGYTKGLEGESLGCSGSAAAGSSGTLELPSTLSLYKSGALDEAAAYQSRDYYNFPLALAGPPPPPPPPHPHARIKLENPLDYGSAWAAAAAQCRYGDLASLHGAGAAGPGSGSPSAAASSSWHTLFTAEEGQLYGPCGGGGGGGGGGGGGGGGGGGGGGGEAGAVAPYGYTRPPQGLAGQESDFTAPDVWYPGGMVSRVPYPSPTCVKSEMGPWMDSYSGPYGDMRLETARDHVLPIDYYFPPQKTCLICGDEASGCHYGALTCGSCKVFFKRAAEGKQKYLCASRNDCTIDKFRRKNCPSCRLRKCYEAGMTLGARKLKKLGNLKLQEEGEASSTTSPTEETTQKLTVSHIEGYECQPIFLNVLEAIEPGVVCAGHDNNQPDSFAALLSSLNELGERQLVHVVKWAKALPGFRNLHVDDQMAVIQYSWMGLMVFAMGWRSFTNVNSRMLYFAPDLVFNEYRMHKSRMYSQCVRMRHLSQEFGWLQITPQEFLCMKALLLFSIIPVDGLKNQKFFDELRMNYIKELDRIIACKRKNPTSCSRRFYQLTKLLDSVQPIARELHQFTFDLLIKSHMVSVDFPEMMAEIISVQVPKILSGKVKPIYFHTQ

[3] = tested on: estrogen receptor (keloid cytosol); assay: Keloid cytosol steroid binding assay, estrogen; set-up: species or system human
estrogen receptor [4] = assay: Estrogen receptor inhibition in skin/tissue fibroblast lines; format: cell-based, human; settings: DHT:compound 1:1,000; for interference with / inhibition of estrogen receptors: more than 400 experiments
Experimental: as §1, §2

androgen receptor [5] = assay: Androgen receptor inhibition, Pseudomonas testosteroni; format: binding; settings: DHT:anti-androgen 1:1,000
progesterone receptor [6] = assay: Fungal progesterone receptor inhibition, Fusarium; format: binding
Saccharomyces cerevisiae = assay: Fermentation: ethanol production; format: cell-based
androgen receptor [7] = assay: Androgen receptor inhibition, Saccharomyces cerevisiae strains; settings: DHT:anti-androgen 1:1,000
estrogen receptor [8] = format: binding, Histoplasma
estrogen receptor [9] = assay: Estrogen receptor inhibition, Saccharomyces cerevisiae strains; settings: DHT:anti-androgen 1:1,000
androgen receptor [10] = assay: Androgen receptor inhibition, Norcardia; format: binding
[11] = keloid, listed as 2-(5-methoxyhept-1-yl)bicyclo[3.3.0]octan-7-one

CCC(CCCCC1CCC2CC(=O)CC12)OC (stereo not shown) [Compound V, 2-(5-Methoxyhept-1-yl)bicyclo[3.3.0]octan-7-one]
interference with progesterone receptors (progesterone receptor [1]; more than 400 experiments): without significant interference | % Progesterone Receptor Inhibition (progesterone receptor [1]; forearm): 4% | % Progesterone Receptor Inhibition (progesterone receptor [1]; keloid): 0% | % Progesterone Receptor Inhibition (progesterone receptor [1]; [11]): no measurable | % Progesterone Receptor Inhibition (progesterone receptor [1]; scalp): 7% and 0% and 3% | % Block ([2]; patient 1, suprapubic): 43% | % Block ([2]; patient 2, chest): 24% | % Block ([2]; patient 3, neck): 57% | % Block ([2]; patient 4, inguinal groin): 86% | effect on binding of estrogen [3]: no effect | interference with / inhibition of estrogen receptors (estrogen receptor [4]): without significant interference | interference with / inhibition of estrogen receptors (estrogen receptor [4]; listed as 2-(5-methoxyhept-1-yl)bicyclo[3.3.0]octan-7-one): None of the tests showed any measurable estrogen receptor inhibition; also recorded: without significant interference | % Estrogen Receptor Inhibition (estrogen receptor [4]; forearm): 0% | % Estrogen Receptor Inhibition (estrogen receptor [4]; keloid): 0% | % Estrogen Receptor Inhibition (estrogen receptor [4]; [11]): no measurable | % Estrogen Receptor Inhibition (estrogen receptor [4]; scalp): 0%

CCC(O)CCCCC1CCC2CC(=O)CC12 (stereo not shown) [Compound IV]
% Androgen Receptor Inhibition (androgen receptor [5]; strain 1): 90% | % Androgen Receptor Inhibition (androgen receptor [5]; strain 2): 49% | % Androgen Receptor Inhibition (androgen receptor [5]; strain 3): 39% | % Androgen Receptor Inhibition (androgen receptor [5]; strain 4): 63% | % Progesterone Receptor Inhibition (progesterone receptor [6]; fungal hormone Zeralanol): 0% | % Progesterone Receptor Inhibition (progesterone receptor [6]; fungal hormone Zeralenone): 0% | depression of ethanol production (Saccharomyces cerevisiae; other strains): one-eighth its normal rate | increase of ethanol production (Saccharomyces cerevisiae; some strains): as much as three times the natural rate | % Androgen Receptor Inhibition (androgen receptor [7]; strain 1): 16% | % Androgen Receptor Inhibition (androgen receptor [7]; strain 2): 37% | % Androgen Receptor Inhibition (androgen receptor [7]; strain 3): 92% | % Androgen Receptor Inhibition (androgen receptor [7]; strain 4): 76% | % Androgen Receptor Inhibition (androgen receptor [7]; strain 5): 39% | % Androgen Receptor Inhibition (androgen receptor [7]; strain 6): 59% | % Androgen Receptor Inhibition (androgen receptor [7]; strain 7): 87% | % Estrogen Receptor Inhibition (estrogen receptor [8]): 0% | % Estrogen Receptor Inhibition (estrogen receptor [9]; strain 1): 0% | % Estrogen Receptor Inhibition (estrogen receptor [9]; strain 2): 0% | % Estrogen Receptor Inhibition (estrogen receptor [9]; strain 3): 0% | % Estrogen Receptor Inhibition (estrogen receptor [9]; strain 4): 0% | % Estrogen Receptor Inhibition (estrogen receptor [9]; strain 5): 0% | % Estrogen Receptor Inhibition (estrogen receptor [9]; strain 6): 0% | % Estrogen Receptor Inhibition (estrogen receptor [9]; strain 7): 0% | % Androgen Receptor Inhibition (androgen receptor [10]): 50%
